Data on one compound can be found in patent US6486147B2, “Cosmetic composition containing a steroid and a 2-alkylalkanol or an ester thereof” (L'Oreal, priority 2000, dated 2002).

This data set in a line: Solubility of DHEA in various conventional solubilizing agents. In kind it is physicochemical. The settings on record: for Solubility after one month (AT): ambient temperature. The procedure: The solubility of DHEA in various conventional solubilizing agents is mentioned in Table 2 below by way of comparison (the percentage of DHEA is calculated with respect to the total weight of DHEA and of solvent; AT refers to ambient temperature): […]

The mark [1] stands for this setting: solvent Benzoate of C12-15 alcohols, 3% DHEA.
[2] abbreviates: solvent Propylene glycol, 5-10% DHEA.
[3] abbreviates: solvent Propylene glycol, 15-20% DHEA.

Molecules are shown by their SMILES.

Consider `C[C@]12CC[C@H](O)CC1=CC[C@@H]1[C@@H]2CC[C@]2(C)C(=O)CC[C@@H]12` [DHEA, dehydroepiandrosterone], for which the Solubility result under setting [1] was “Soluble at 50 °C”; the Solubility result (solvent Dodecanol, 10% DHEA) was “Insoluble even at”; the Solubility entry (solvent Phenoxyethanol, 20% DHEA (of total weight of DHEA and solvent)) is “Soluble at AT”; the Solubility result under setting [2] was “Soluble at 50 °C”; the Solubility entry under setting [3] is reported as “Insoluble at AT”. In addition, the “Solubility after one month (AT)” value is, setting by setting: under setting [1], “Crystals”; (solvent Dodecanol, 10% DHEA) “Crystals”; (solvent Phenoxyethanol, 20% DHEA) “Crystals”; under setting [2], “Crystals”; under setting [3], “Crystals”.
